The source of these data is ChEMBL document CHEMBL1136845, “Synthesis, biological activity and tubulin binding poses of 1-deoxy-9-(R)-dihydrotaxane analogs” (Bioorg Med Chem Lett, 2009).

Assay [1] relates to A2780. In words: Cytotoxicity against human A2780 cells after 72 hrs by MTT assay. It is filed as functional, cell-based. The following applies: A2780, 72 h. (Formazan colour is commonly taken as a measure of viable cells.)
Assay [2] concerns A549. In words: Cytotoxicity against human A549 cells after 72 hrs by MTT assay. The class given is functional, cell-based. The following applies: A549, 72 h.
A short description of assay [3]: Inhibition of GTP-[…] tubulin polymerization.

Values after ≈ are worked out from the molar mass of the structure shown.

For orientation: IC50 means the midpoint of a concentration-inhibition curve. Low values mean inhibition by little substance, high ones a need for much substance. Regarding `CC(=O)O[C@@]12CO[C@@H]1C[C@H](O)[C@]1(C)[C@@H]2[C@H](OC(=O)c2ccccc2)[C@@H]2C[C@H](OC(=O)[C@H](O)[C@@H](NC(=O)c3ccccc3)c3ccccc3)C(C)=C([C@@H](O)[C@@H]1O)C2(C)C`, the figures for the IC50 in assay [1] and in assay [2] were 0.11 ng/mL (≈ 0.138 nM) and 0.18 ng/mL (≈ 0.226 nM), respectively. Moreover, the ED50 in assay [3] came out at 1900 nM.

Regarding `CC(=O)O[C@@]12CO[C@@H]1C[C@H](O)[C@]1(C)[C@@H]2[C@H](OC(=O)c2ccccc2)[C@@H]2C[C@H](OC(=O)[C@H](O)[C@@H](NC(=O)c3ccccc3)c3ccccc3)C(C)=C([C@H]3OC(C)(C)O[C@@H]31)C2(C)C`, the IC50 worked out at 1.54 ng/mL (≈ 1.84 nM) in assay [1] and 2.87 ng/mL (≈ 3.42 nM) in assay [2]. The compound also returned an ED50 in assay [3] of 5200 nM.

On to `CC(=O)O[C@H]1C(=O)[C@@]2(C)[C@H]([C@H](OC(=O)c3ccccc3)[C@]3(O)C[C@H](OC(=O)[C@H](O)[C@@H](NC(=O)c4ccccc4)c4ccccc4)C(C)=C1C3(C)C)[C@]1(OC(C)=O)CO[C@@H]1C[C@@H]2O` [PACLITAXEL], for which the IC50 in assay [1] turned out to be 0.13 ng/mL (≈ 0.152 nM); in assay [2], 0.29 ng/mL (≈ 0.34 nM). The ED50 in assay [3] amounted to 520 nM.
